Test results from patent US20240368174A1, “Antiviral Heterocyclic Compounds” (Enanta Pharmaceuticals, Inc., priority 2023, published 2024).

What follows are molecules tested on HMPV clinical isolate A2 strain TN 94-49 (assay: HMPV antiviral assay, Method 2 (LLC-MK2 cells with CP-100-356, ATP-Lite)). Conditions: human metapneumovirus, 168 h; hMPV A2 TN/94-49, LLC-MK2 cells with 4 μM CP-100-356, 7 days, ATP-Lite.
Assay type: cell-based
Summary of the method: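 LLC-MK2 rhesus kidney cells (5,000/well) infected in suspension with HMPV A2 TN 94-49 at MOI 0.16, in serum-free medium with final 2 μg/mL TPCK-trypsin and 2 μM CP-100-356. Compounds tested in duplicate from 200 nM, 2.5-fold, 10 points; 7 days at 37 °C. Cell health by ATP-Lite luminescence; EC50 by four-parameter fit.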

EC50, < 200 nM:
COc1nccc(-c2nc([C@@](O)(CNC(=O)c3cc(OC)c4nn(C(F)F)cc4c3)C3(F)CC3)cc3c2OC[C@]3(C)C(N)=O)c1Cl [Example 655]
COc1nccc(-c2nc([C@@](O)(CNC(=O)c3cc(OC)c4nc(C)c(Cl)cc4c3)c3cccc(F)c3)cc3c2OC[C@]3(C)C(N)=O)c1Cl [Example 659]
COc1nccc(-c2nc([C@@](O)(CNC(=O)c3cc(OC)c4nn(C5(F)CC5)cc4c3)C3CC(F)(F)C3)cc3c2OC[C@]3(C)C(N)=O)c1Cl [Example 896]
COc1cc(C(=O)NC[C@](O)(c2cc3c(c(-c4cccc(F)c4Cl)n2)OC[C@]3(C)C(N)=O)C2CC2)cc2cc(C3CC3)nn12 [Example 632]
COc1nccc(-c2nc([C@@](O)(CNC(=O)c3cc(OC4CC4)c4nn(C5(F)CC5)cc4c3)C3(F)CC3)cc3c2OC[C@]3(C)C(N)=O)c1Cl [Example 658]
COc1cc(C(=O)NC[C@@](O)(c2ccccc2)c2cc3c(c(-n4ncc5c(F)cccc54)n2)OC[C@]3(C)C(N)=O)cn2cc(C3CC3)nc12 [Example 634]
COc1cc(C(=O)NC[C@](O)(c2cc3c(c(-c4ccnc(N(C)C)c4Cl)n2)OC[C@]3(C)C(N)=O)C2CC2)cc2cn(C3CC3)nc12 [Example 811]
COc1cc(C(=O)NC[C@](O)(c2cc3c(c(-c4c(C)cncc4C)n2)OC[C@]3(C)C(N)=O)C2CC2)cc2cn(C3CC3)nc12 [Example 726]

EC50, > 200 nM:
COc1cc(C(=O)NC[C@](O)(c2cc3c(c(-c4ccnc(OC(C)C)c4Cl)n2)OC[C@]3(C)C(N)=O)C2CC2)cc2cn(C3CC3)nc12 [Example 806]
COc1cc(C(=O)NC[C@](O)(c2cc3c(c(-n4ccc5c(C(F)(F)F)cccc54)n2)OC[C@]3(C)C(N)=O)C2CC2)cc2cn(C3CC3)nc12 [Example 869]
COc1cc(C(=O)NC[C@](O)(c2cc3c(c(-c4ccnc(C(C)C)c4Cl)n2)OC[C@]3(C)C(N)=O)C2CC2)cc2cn(C(F)F)nc12 [Example 907]
CC(C)c1nccc(-c2nc([C@@](O)(CNC(=O)c3cc(OC4CC4)c4nn(C5(F)CC5)cc4c3)C3CC3)cc3c2OC[C@]3(C)C(N)=O)c1Cl [Example 912]

Same assay, conditions: human metapneumovirus; hMPV A2 TN/94-49, LLC-MK2 cells with CP-100-356, Method 2

EC50, < 200 nM:
COc1cc(C(=O)NC[C@@](O)(c2ccccc2)c2cc3c(c(-c4ccnc(C(F)F)c4Cl)n2)OC[C@]3(C)C(N)=O)cc2oc(C3CC3)nc12 [Example 564]
COc1cc(C(=O)NC[C@@](O)(c2ccccc2)c2cc3c(c(-c4ccc(F)c(F)c4Cl)n2)OC[C@]3(C)C(N)=O)cc2cn(C3(F)CC3)nc12 [Example 370]
COc1cc(C(=O)NC[C@@](O)(c2ccccc2)c2cc3c(c(-c4ccnc(C(F)F)c4Cl)n2)OC[C@]3(C)C(N)=O)cc2cn(C3(F)CC3)nc12 [Example 563]
COc1cc(C(=O)NC[C@](O)(c2cc3c(c(-c4cc(F)ncc4Cl)n2)OC[C@]3(C)C(N)=O)C2CC2)cc2cn(C3CC3)nc12 [Example 384]
COc1cc(C(=O)NC[C@](O)(c2cc3c(c(-c4ccnc(Cl)c4Cl)n2)OC[C@]3(C)C(N)=O)C2CC2)cc2cn(C3CC3)nc12 [Example 387]
COc1cc(C(=O)NC[C@@](O)(c2cccc(F)n2)c2cc3c(c(-c4cc(Cl)c(F)cc4F)n2)OC[C@]3(C)C(N)=O)cc2cn(C3CC3)nc12 [Example 203]
COc1cc(C(=O)NC[C@](O)(c2cc3c(c(-c4ccnc(C)c4Cl)n2)OC[C@]3(C)C(N)=O)C2(F)CC2)cc2cn(C3(F)CC3)nc12 [Example 525]
COc1nccc(-c2nc([C@@](O)(CNC(=O)c3cc(OC4CC4)n4nc(C5CC5)cc4c3)C3CC3)cc3c2OC[C@]3(C)C(N)=O)c1Cl [Example 606]
COc1cc(C(=O)NC[C@@](O)(c2ccnc(C)c2)c2cc3c(c(-c4cc(Cl)c(F)cc4F)n2)OC[C@]3(C)C(N)=O)cc2cn(C3CC3)nc12 [Example 485]
COc1nccc(-c2nc([C@@](O)(CNC(=O)c3cc(OC)c4nc(C(F)F)oc4c3)c3cccc(F)c3)cc3c2OC[C@]3(C)C(N)=O)c1Cl [Example 561]
C[C@]1(C(N)=O)COc2c1cc([C@@](O)(CNC(=O)c1cc(Cl)c3nn(C4CC4)cc3c1)C1(F)CC1)nc2-c1ccnc(Cl)c1Cl [Example 523]
COc1cc(C(=O)NC[C@@](O)(c2ccccc2)c2cc3c(c(-c4cc(C(F)(F)F)c(F)cc4F)n2)OC[C@]3(C)C(N)=O)cc2cn(C3CC3)nc12 [Example 302]
COc1cc(C(=O)NC[C@@](O)(c2ccnc(N)c2)c2cc3c(c(-c4cc(Cl)c(F)cc4F)n2)OC[C@]3(C)C(N)=O)cc2cn(C3CC3)nc12 [Example 484]
COc1cc(C(=O)NC[C@@](O)(c2ccc(F)cc2)c2cc3c(c(-c4ccnc(C(F)F)c4Cl)n2)OC[C@]3(C)C(N)=O)cc2cn(C3CC3)nc12 [Example 569]
COc1cc(C(=O)NC[C@@](O)(c2ccccc2)c2cc3c(c(-c4ccc5c(c4)OC(F)(F)O5)n2)OC[C@]3(C)C(N)=O)cc2oc(C3CC3)nc12 [Example 200]
COc1cc(C(=O)NC[C@](O)(c2cc3c(c(-c4ccnc(Cl)c4Cl)n2)OC[C@]3(C)C(N)=O)C2(F)CC2)cc2oc(C3CC3)nc12 [Example 520]
Cc1nccc(-c2nc([C@@](O)(CNC(=O)c3cc(OC4CC4)c4nn(C(F)F)cc4c3)c3cccc(F)c3)cc3c2OC[C@]3(C)C(N)=O)c1Cl [Example 604]
COc1nccc(-c2nc([C@@](O)(CNC(=O)c3cc(OC)n4nc(C5CC5)cc4c3)C(F)(F)F)cc3c2OC[C@]3(C)C(N)=O)c1Cl [Example 590]
C[C@]1(C(N)=O)COc2c1cc([C@@](O)(CNC(=O)c1cc(C(F)(F)F)c3nn(C4CC4)cc3c1)c1ccccc1)nc2-c1cc(Cl)c(F)cc1F [Example 228]

EC50, > 200 nM:
COc1cc(C(=O)NC[C@@](O)(c2ccccc2)c2cc3c(c(-c4cc(S(C)(=O)=O)ccc4F)n2)OC[C@]3(C)C(N)=O)cc2cn(C3(F)CC3)nc12 [Example 372]
C[C@]1(C(N)=O)COc2c1cc([C@@](O)(CNC(=O)c1ccc3nc(C4CC4)oc3c1)c1ccccc1)nc2-c1ccc2c(c1)OC(F)(F)O2 [Example 199]
C[C@]1(C(N)=O)COc2c1cc([C@@](O)(CNC(=O)c1cc(Cl)c3[nH]ncc3c1)c1ccccc1)nc2-c1cc(Cl)c(F)cc1F [Example 117]
COc1cc(C(=O)NC[C@@](O)(c2cnn(C)c2)c2cc3c(c(-c4cc(Cl)c(F)cc4F)n2)OC[C@]3(C)C(N)=O)cc2cn(C3CC3)nc12 [Example 153]
COc1cc(C(=O)NC[C@](O)(c2cc3c(c(-c4ccc(SC(F)(F)F)cc4)n2)OC[C@]3(C)C(N)=O)C2CC2)cc2cn(C3CC3)nc12 [Example 386]
Cc1nc2c(OC(F)F)cc(C(=O)NC[C@](O)(c3cc4c(c(-c5cc(Cl)c(F)cc5F)n3)OC[C@]4(C)C(N)=O)c3ccccc3F)cc2cc1Br [Example 139]
COc1cc(C(=O)NC[C@@](O)(c2cccc(F)c2)c2cc3c(c(-c4cc(F)c(F)cc4C(N)=O)n2)OC[C@]3(C)C(N)=O)cc2cn(C3(F)CC3)nc12 [Example 405]
C[C@]1(C(N)=O)COc2c1cc([C@@](O)(CNC(=O)c1ccc3nc(Cc4ccccc4)oc3c1)c1ccccc1)nc2-c1cc(Cl)c(F)cc1F [Example 230]
